From patent US11000033B2, “Ketone or oxime compound, and herbicide” (NISSAN CHEMICAL CORPORATION, priority 2014, dated 2021)

Experiments:
Format in all cases: in vivo
Avena fatua = experiment: Test Example 5: herbicidal effect by foliage application, plastic box (symbol I); conditions: 320 g/ha, 3 weeks after application
How it was run: (§1)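 Emulsion formulation, diluted with water to the intended rate, was applied uniformly to leaves by small sprayer. Recipients were 14-day greenhouse-grown seedlings (25° C. to 30° C.). Assessment followed at 3 weeks.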

Amaranthus retroflexus = experiment: Test Example 5: herbicidal effect by foliage application, plastic box (symbol N); conditions: 320 g/ha, 3 weeks after application
How it was run: as §1

Lolium multiflorum Lam. = experiment: Test Example 5: herbicidal effect by foliage application, plastic box (symbol K); conditions: 320 g/ha, 3 weeks after application
How it was run: as §1

Scirpus juncoides = experiment: Test Example 2: herbicidal activity, application during weed generation in submerged conditions (symbol B); conditions: Table 23; application herbicide amount 320 g/ha; grade 0-5 by criteria of Test Example 1
How it was run: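 Compound was applied as a water-diluted emulsion into the standing water of flooded pots (4 cm) once co-sown weeds reached one to two leaves. Greenhouse temperature was 25° C. to 30° C., soil was alluvial, and each species was rated visually after 3 weeks.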

[1] = tested on: Echinochloa crus-galli var. crus-galli; experiment: Test Example 5: herbicidal effect by foliage application, plastic box (symbol H); conditions: 320 g/ha, 3 weeks after application
How it was run: as §1

Apera spica-venti [2] = experiment: Test Example 5: herbicidal effect by foliage application, plastic box (symbol L); conditions: 320 g/ha, 3 weeks after application
How it was run: as §1

[3] = tested on: Echinochloa crus-galli var. crus-galli; experiment: Test Example 3: herbicidal effect by foliage application, Wagner pot (symbol H); conditions: application herbicide amount 320 g/ha
How it was run: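 In a shallow-flooded alluvial soil system held at 25–30 °C, plants including rice grew for 14 days and were then sprayed over the foliage with emulsion diluted to a fixed herbicide amount. Visual rating followed at 3 weeks.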

soybean = experiment: Test Example 4: effect on crop by soil treatment (symbol d); conditions: application herbicide amount 320 g/ha
How it was run: (§2)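 Plants grew in a 25° C. to 30° C. greenhouse after spot-sowing of seeds, including beet, rapeseed, wheat and rice, into sterilized diluvial soil under roughly 1.5 cm of cover soil.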

Veronica persica = experiment: Test Example 4: herbicidal effect by soil treatment (symbol R); conditions: application herbicide amount 320 g/ha
How it was run: (§3)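 Seeds were sown in sterilized diluvial soil, covered with about 1.5 cm of soil, and the soil surface was sprayed with a water-diluted emulsion of the compound at a predetermined rate. Plants grew in a greenhouse at 25° C. to 30° C.; effects were scored visually 3 weeks after application.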

wheat = experiment: Test Example 4: effect on crop by soil treatment (symbol e); conditions: application herbicide amount 320 g/ha
How it was run: as §2

Stellaria media = experiment: Test Example 4: herbicidal effect by soil treatment (symbol P); conditions: application herbicide amount 320 g/ha
How it was run: as §3

corn = experiment: Test Example 4: effect on crop by soil treatment (symbol c); conditions: application herbicide amount 320 g/ha
How it was run: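 Crop seed is sown in spots together with several weed species in a box of sterilized diluvial soil. It is covered by about 1.5 cm of soil and kept in a greenhouse held between 25° C. and 30° C.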

rapeseed = experiment: Test Example 5: effect on crop by foliage application, plastic box (symbol g); conditions: 320 g/ha, 3 weeks after application
How it was run: (§4)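 Foliage-application test plants come from spot sowing in sterilized diluvial soil under a soil layer of about 1.5 cm, grown at 25° C. to 30° C. in a greenhouse.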

beet = experiment: Test Example 5: effect on crop by foliage application, plastic box (symbol f); conditions: 320 g/ha, 3 weeks after application
How it was run: as §4

Galium spurium = experiment: Test Example 4: herbicidal effect by soil treatment (symbol Q); conditions: application herbicide amount 320 g/ha
How it was run: as §3

Apera spica-venti [4] = experiment: Test Example 4: herbicidal effect by soil treatment (symbol L); conditions: application herbicide amount 320 g/ha
How it was run: as §3

CON=C(C)CC1CC(O)=C(c2c(C)cc(C)cc2OC)C1=O (centres unmarked) [6-037, 3-hydroxy-2-(2-methoxy-4,6-dimethylphenyl)-5-{2-(methoxyimino)propyl}cyclopent-2-enone]
I: Avena fatua, herbicidal effect grade (Avena fatua): 5 (Herbicidal ratio of 90% or more (almost completely withered))
N: Amaranthus retroflexus, herbicidal effect grade (Amaranthus retroflexus): 5 (Herbicidal ratio of 90% or more (almost completely withered))
K: Lolium multiflorum Lam., herbicidal effect grade (Lolium multiflorum Lam.): 5 (Herbicidal ratio of 90% or more (almost completely withered))
Herbicidal effect grade, B: Scirpus juncoides (Scirpus juncoides): 4 (Herbicidal ratio of 70% or higher and lower than 90%)
H: Echinochloa crus-galli var. crus-galli, herbicidal effect grade [1]: 5 (Herbicidal ratio of 90% or more (almost completely withered))
L: Apera spica-venti, herbicidal effect grade (Apera spica-venti [2]): 5 (Herbicidal ratio of 90% or more (almost completely withered))
herbicidal effect on H (Echinochloa crus-galli var. crus-galli), grade 0-5 [3]: 5 (Herbicidal ratio of 90% or more (almost completely withered))
d: soybean, effect on crop grade (soybean): 2 (Herbicidal ratio of 20% or higher and lower than 40%)
R: Veronica persica, herbicidal effect grade (Veronica persica): 1 (Herbicidal ratio of 5% or higher and lower than 20%)
e: wheat, effect on crop grade (wheat): 5 (Herbicidal ratio of 90% or more (almost completely withered))
P: Stellaria media, herbicidal effect grade (Stellaria media): 0 (Herbicidal ratio of 5% or lower (almost no effect))
c: corn, effect on crop grade (corn): 5 (Herbicidal ratio of 90% or more (almost completely withered))
g: rapeseed, effect on crop grade (rapeseed): 5 (Herbicidal ratio of 90% or more (almost completely withered))
f: beet, effect on crop grade (beet): 3 (Herbicidal ratio of 40% or higher and lower than 70%)
Q: Galium spurium, herbicidal effect grade (Galium spurium): 0 (Herbicidal ratio of 5% or lower (almost no effect))
L: Apera spica-venti, herbicidal effect grade (Apera spica-venti [4]): 5 (Herbicidal ratio of 90% or more (almost completely withered))

CON=C(C)CC1CC(O)=C(c2c(C)cc(OCC(F)(F)F)cc2C)C1=O (centres unmarked) [6-049]
I: Avena fatua, herbicidal effect grade (Avena fatua): 0 (Herbicidal ratio of 5% or lower (almost no effect))
N: Amaranthus retroflexus, herbicidal effect grade (Amaranthus retroflexus): 4 (Herbicidal ratio of 70% or higher and lower than 90%)
K: Lolium multiflorum Lam., herbicidal effect grade (Lolium multiflorum Lam.): 5 (Herbicidal ratio of 90% or more (almost completely withered))
Herbicidal effect grade, B: Scirpus juncoides (Scirpus juncoides): 4 (Herbicidal ratio of 70% or higher and lower than 90%)
H: Echinochloa crus-galli var. crus-galli, herbicidal effect grade [1]: 5 (Herbicidal ratio of 90% or more (almost completely withered))
L: Apera spica-venti, herbicidal effect grade (Apera spica-venti [2]): 5 (Herbicidal ratio of 90% or more (almost completely withered))
herbicidal effect on H (Echinochloa crus-galli var. crus-galli), grade 0-5 [3]: 5 (Herbicidal ratio of 90% or more (almost completely withered))
d: soybean, effect on crop grade (soybean): 0 (Herbicidal ratio of 5% or lower (almost no effect))
R: Veronica persica, herbicidal effect grade (Veronica persica): 4 (Herbicidal ratio of 70% or higher and lower than 90%)
e: wheat, effect on crop grade (wheat): 5 (Herbicidal ratio of 90% or more (almost completely withered))
P: Stellaria media, herbicidal effect grade (Stellaria media): 4 (Herbicidal ratio of 70% or higher and lower than 90%)
c: corn, effect on crop grade (corn): 5 (Herbicidal ratio of 90% or more (almost completely withered))
g: rapeseed, effect on crop grade (rapeseed): 5 (Herbicidal ratio of 90% or more (almost completely withered))
f: beet, effect on crop grade (beet): 4 (Herbicidal ratio of 70% or higher and lower than 90%)
Q: Galium spurium, herbicidal effect grade (Galium spurium): 3 (Herbicidal ratio of 40% or higher and lower than 70%)
L: Apera spica-venti, herbicidal effect grade (Apera spica-venti [4]): 5 (Herbicidal ratio of 90% or more (almost completely withered))
